Assay results as given in ChEMBL document CHEMBL1201862, “PubChem BioAssay data set” (2004).
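Exposure lasted 48 hours, with cells grown in 96-well plates and compounds tested at five concentrations. GI50 is the concentration that inhibits growth by half.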 Active and inactive are the calls of the source. No stated cut-off is given here; in the data, active = GI50 up to about 1.1 µM and inactive = higher. Where a SMILES comes first, the peptide text is derived from it. [ ]: non-standard residue; d: D form. 2Nal = N[CH](Cc1ccc2ccccc2c1)C(=O)O

How the values were obtained:
Assay in all cases: NCI-60 cell line screen, 48 h
SN12C = system: SN12C
PC-3 = system: PC-3
HCT-116 = system: HCT-116
MDA-MB-435 = system: MDA-MB-435
NCI/ADR-RES = system: NCI/ADR-RES
Malme-3M = system: Malme-3M
786-0 = system: 786-0
M14 = system: M14
TK-10 = system: TK-10
IGROV-1 = system: IGROV-1
SK-MEL-5 = system: SK-MEL-5
NCI-H226 = system: NCI-H226
A498 = system: A498
BT-549 = system: BT-549
HOP-92 = system: HOP-92
NCI-H522 = system: NCI-H522
Hs-578T = system: Hs-578T
SNB-75 = system: SNB-75
COLO 205 = system: COLO 205
MDA-N = system: MDA-N

Row | Compound | GI50 (SN12C) | GI50 (PC-3) | GI50 (HCT-116) | GI50 (MDA-MB-435) | GI50 (NCI/ADR-RES) | GI50 (Malme-3M) | GI50 (786-0) | GI50 (M14) | GI50 (TK-10) | GI50 (IGROV-1) | GI50 (SK-MEL-5) | GI50 (NCI-H226) | GI50 (A498) | GI50 (BT-549) | GI50 (HOP-92) | GI50 (NCI-H522) | GI50 (Hs-578T) | GI50 (SNB-75) | GI50 (COLO 205) | GI50 (MDA-N)
1 | Cc1sc2nc(-c3cc([N+](=O)[O-])c(Cl)cc3Cl)c(/C=N/NC(=N)N)n2c1C | 5.65 µM (inactive) | 5.69 µM (inactive) | 4.15 µM (inactive) | 3.72 µM (inactive) | 31.7 µM (inactive) | 13.8 µM (inactive) | 5.46 µM (inactive) | 2.76 µM (inactive) | 13.9 µM (inactive) | 2.34 µM (inactive) | 6.3 µM (inactive) | 26.8 µM (inactive) | 19.5 µM (inactive) | 3.59 µM (inactive) | 7.13 µM (inactive) | 8.47 µM (inactive) | 16.7 µM (inactive) |  |  | 
2 | O=C1N(CN2CCOCC2)CN(CN2CCOCC2)C(=O)N1Cc1ccc(-c2ccc(CN3C(=O)N(CN4CCOCC4)CN(CN4CCOCC4)C3=O)cc2)cc1 |  | 20.8 µM (inactive) | 7.6 µM (inactive) | 2.63 µM (inactive) | 17.3 µM (inactive) | 13.2 µM (inactive) | 9.16 µM (inactive) | 5.53 µM (inactive) | 16.5 µM (inactive) | 11.6 µM (inactive) | > 19.7 µM (inactive) | > 46.2 µM (inactive) | 15.3 µM (inactive) | 5.87 µM (inactive) | 9.46 µM (inactive) | 12.2 µM (inactive) | 26.2 µM (inactive) | 9.55 µM (inactive) | > 21 µM (inactive) | 
3 | CCCN1CN(c2ccccc2)C2(CCN(CCCC(=O)c3ccc(F)cc3)CC2)C1=O | 2.94 µM (inactive) | 10.2 µM (inactive) | 2.18 µM (inactive) | 11 µM (inactive) | 4.53 µM (inactive) | 14.9 µM (inactive) | 5.15 µM (inactive) | 12.4 µM (inactive) | 6.62 µM (inactive) | 2.54 µM (inactive) | 1.44 µM (inactive) | 6.47 µM (inactive) | 0.933 µM (active) |  | 3.41 µM (inactive) | 20.3 µM (inactive) | 13.2 µM (inactive) | 15 µM (inactive) | 0.169 µM (active) | 9.38 µM (inactive)
4 | CCOc1ccc(NC(=O)/C(=N\N)C(C(=O)OC)c2nc3ccc(Cl)cc3nc2O)cc1 (stereo unspecified) | > 100 µM (inactive) | > 100 µM (inactive) | > 100 µM (inactive) | > 100 µM (inactive) | > 100 µM (inactive) | > 100 µM (inactive) | > 100 µM (inactive) | > 100 µM (inactive) | > 100 µM (inactive) | 79.1 µM (inactive) | > 100 µM (inactive) | > 100 µM (inactive) | > 100 µM (inactive) | > 100 µM (inactive) | > 100 µM (inactive) | > 100 µM (inactive) | > 100 µM (inactive) | > 100 µM (inactive) |  | 
5 | COc1ccc(N2C(=O)C(=O)N(c3ccc(/N=N\c4ccccc4)cc3)C2=S)cc1 | 18 µM (inactive) | 17.6 µM (inactive) | 19.3 µM (inactive) | 22.8 µM (inactive) | 18.9 µM (inactive) | 18.5 µM (inactive) | 17.5 µM (inactive) |  | 20.7 µM (inactive) | 16.6 µM (inactive) | 16.7 µM (inactive) | 21.7 µM (inactive) | 23.8 µM (inactive) |  | 16.8 µM (inactive) | 5.37 µM (inactive) | 27.4 µM (inactive) | 22.6 µM (inactive) | 17.1 µM (inactive) | 19.3 µM (inactive)
6 | COc1cc2oc(=O)ccc2cc1C1OC(=O)C2OC21C (stereo unspecified) | > 100 µM (inactive) | > 100 µM (inactive) | > 100 µM (inactive) | > 100 µM (inactive) | > 100 µM (inactive) | > 100 µM (inactive) | > 100 µM (inactive) | > 100 µM (inactive) | > 100 µM (inactive) | > 100 µM (inactive) | > 100 µM (inactive) | > 100 µM (inactive) |  |  | > 100 µM (inactive) |  | 54.6 µM (inactive) | > 100 µM (inactive) | > 100 µM (inactive) | > 100 µM (inactive)
7 | OCC(CCc1ccccc1I)C1=CCC2(CC1)OCCO2 (stereo unspecified) |  | 22.4 µM (inactive) |  | 15.7 µM (inactive) | 20.8 µM (inactive) | 17.8 µM (inactive) | 19.9 µM (inactive) | 20 µM (inactive) | 23.5 µM (inactive) | 16.7 µM (inactive) | 14.6 µM (inactive) | 28.4 µM (inactive) | 24.1 µM (inactive) |  | 12.4 µM (inactive) | 15.2 µM (inactive) | 20.7 µM (inactive) | 19.4 µM (inactive) | 20.1 µM (inactive) | 18.2 µM (inactive)
8 | O=c1[nH]n(Cc2ccccc2Cl)c2ccc([N+](=O)[O-])cc12 | 54 µM (inactive) |  | 41.1 µM (inactive) | 3.98 µM (inactive) | 28.1 µM (inactive) | 47.3 µM (inactive) | 46.6 µM (inactive) | > 100 µM (inactive) | 55.6 µM (inactive) | 61.9 µM (inactive) | 12.6 µM (inactive) | 86.9 µM (inactive) | 22.3 µM (inactive) |  | 18.5 µM (inactive) | 36.1 µM (inactive) | 48.9 µM (inactive) | 47.2 µM (inactive) | > 100 µM (inactive) | 47 µM (inactive)
9 | Cc1ccccc1NC(=O)Cc1csc(N/N=C2\NC(=O)/C(=C/c3cccc([N+](=O)[O-])c3)S2)n1 | 36.6 µM (inactive) | 16.6 µM (inactive) | 36.7 µM (inactive) | 19.8 µM (inactive) | 31.3 µM (inactive) |  | 45.2 µM (inactive) | 17 µM (inactive) | 18.9 µM (inactive) | 14.1 µM (inactive) | 23.9 µM (inactive) | 17.8 µM (inactive) |  |  | 15.8 µM (inactive) |  |  | 13.1 µM (inactive) | 34.2 µM (inactive) | 30.5 µM (inactive)
10 | COc1cccc2c1C(=O)c1c(O)c3c(c(O)c1C2=O)C[C@H](O)C[C@@H]3OC1CC(N)C(O)C(C)O1 (stereo partly specified) |  | 2.09 µM (inactive) | 0.245 µM (active) | 1.82 µM (inactive) | 13.4 µM (inactive) | 0.843 µM (active) | 1.32 µM (inactive) |  | 1.49 µM (inactive) | 1.57 µM (inactive) | 0.522 µM (active) | 1.08 µM (active) | < 0.01 µM (active) | 3.04 µM (inactive) | 2 µM (inactive) | 1.57 µM (inactive) | 0.802 µM (active) | 1.87 µM (inactive) | 0.508 µM (active) | 
11 | O=C1NC(=O)[C@@H](OCC2CCCCC2)[C@@H]2OCC3OC(C(O)C3O)C12 (stereo partly specified) | > 100 µM (inactive) | > 100 µM (inactive) | > 100 µM (inactive) | > 100 µM (inactive) | > 100 µM (inactive) | > 100 µM (inactive) | > 100 µM (inactive) | > 100 µM (inactive) | > 100 µM (inactive) | > 100 µM (inactive) | > 100 µM (inactive) | > 100 µM (inactive) | > 100 µM (inactive) |  |  |  | > 100 µM (inactive) |  | > 100 µM (inactive) | > 100 µM (inactive)
12 | COc1ccc(S(=O)(=O)Nc2ccc(-c3csc(N4C(=O)/C(=C/C=C\c5ccccc5)N=C4c4ccccc4)n3)cc2)cc1Cl | 33.2 µM (inactive) | 31.3 µM (inactive) | 25.7 µM (inactive) | 22.8 µM (inactive) | 28.7 µM (inactive) | 20.2 µM (inactive) | 31.3 µM (inactive) | 27.6 µM (inactive) | 38.5 µM (inactive) | 19.9 µM (inactive) | 27.4 µM (inactive) | 34 µM (inactive) | 22.5 µM (inactive) |  | 16.6 µM (inactive) | 18.5 µM (inactive) | 29.9 µM (inactive) | 33.4 µM (inactive) | 39.4 µM (inactive) | 31.3 µM (inactive)
13 | CNC(=O)OCc1c(COC(=O)NC)c(-c2ccc(Cl)c(Cl)c2)n2c1SCC2 | 13 µM (inactive) | 17.1 µM (inactive) | 11.5 µM (inactive) | 18 µM (inactive) | 16 µM (inactive) | 22.7 µM (inactive) | 16.7 µM (inactive) | 18.7 µM (inactive) | 2.86 µM (inactive) |  | 13.5 µM (inactive) | 0.387 µM (active) | 0.836 µM (active) |  | 10.6 µM (inactive) | 8.85 µM (inactive) | 21 µM (inactive) | 8.77 µM (inactive) | 9.82 µM (inactive) | 18.5 µM (inactive)
14 | CC1(C)CCC2(C(=O)OC3OC(CO)C(O)C(O)C3O)CCC3(C)C(=CCC4C5(C)CCC(OC6OC(CO)C(O)C(O)C6O)C(C)(C)C5CCC43C)C2C1 (stereo unspecified) | 10.9 µM (inactive) | 13.6 µM (inactive) | 8.61 µM (inactive) | 7.16 µM (inactive) |  | 9.77 µM (inactive) | 17.3 µM (inactive) | 14.8 µM (inactive) | > 25 µM (inactive) | 14.1 µM (inactive) | 9.57 µM (inactive) | 10.5 µM (inactive) | > 25 µM (inactive) | 9.44 µM (inactive) | 7.74 µM (inactive) | 5.36 µM (inactive) | 10.7 µM (inactive) | 11.2 µM (inactive) | 8.04 µM (inactive) | 
15 | CC(NC(=O)C(N)Cc1ccccc1)C(=O)NC(Cc1ccc(O)cc1)C(=O)NC(Cc1c[nH]c2ccccc12)C(=O)NC(CCCCN)C(=O)NC(C(=O)NC(C)C(=O)NC(Cc1ccc2ccccc2c1)C(N)=O)C(C)C (stereo unspecified) (H-FAYWKVA[2Nal]-NH2; configuration not given here) | > 12.5 µM (inactive) | > 12.5 µM (inactive) | > 12.5 µM (inactive) | > 12.5 µM (inactive) | > 12.5 µM (inactive) | > 12.5 µM (inactive) | > 12.5 µM (inactive) | > 12.5 µM (inactive) |  | > 12.5 µM (inactive) | > 12.5 µM (inactive) | > 12.5 µM (inactive) | > 12.5 µM (inactive) |  |  | > 12.5 µM (inactive) | > 12.5 µM (inactive) | 28.1 µM (inactive) | > 12.5 µM (inactive) | 
